Assay results reported in the supplement of paper PMC10307832.

Key:
Assay in all cases: relative viability (nuclei count vs DMSO), 5 days (fraction); higher = more cells survive
Metformin = compound: CN(C)C(=N)NC(=N)N [Metformin]
Method in brief: (§1)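 Only plates meeting two conditions passed: control CV below 25% and at least one doubling. Lung cancer cell lines, kept overnight at 37 °C in 1536-well plates, were pinned with five library-drug doses (not always all listed) √10 apart on vehicle-anchored plates and grown 5 days without medium change. A one-step fix, permeabilisation and Hoechst stain preceded 4× imaging and MetaXpress nuclear counting. Viability equals treated-well nuclei divided by vehicle-well nuclei, as the median over plates.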

Apatinib = compound: N#CC1(c2ccc(NC(=O)c3cccnc3NCc3ccncc3)cc2)CCCC1 [Apatinib]
Method in brief: as §1

Metformin + Alpelisib = compound: CN(C)C(=N)NC(=N)N [Metformin] + Cc1nc(NC(=O)N2CCC[C@H]2C(N)=O)sc1-c1ccnc(C(C)(C)C(F)(F)F)c1 [Alpelisib] (partner 2 µM)
Method in brief: (§2)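 Medians of duplicate plates are given as relative viability. That measure is the nuclei count in treated wells divided by the count in vehicle wells. Counts were taken on 4× images of lung cancer cell lines in 1536-well plates, 5 days after pin-tool dosing the day after seeding with one drug alone or a fixed anchor-drug dose plus five library-drug doses (not always all listed) in √10 steps.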

Apatinib + Pemetrexed = compound: N#CC1(c2ccc(NC(=O)c3cccnc3NCc3ccncc3)cc2)CCCC1 [Apatinib] + Nc1nc2[nH]cc(CCc3ccc(C(=O)N[C@@H](CCC(=O)O)C(=O)O)cc3)c2c(=O)[nH]1 [Pemetrexed] (partner 0.2 µM)
Method in brief: as §2

Row | Cell Line | relative viability (Metformin; 31.62 µM) | relative viability (Metformin; 100 µM) | relative viability (Metformin; 316.23 µM) | relative viability (Metformin; 1000 µM) | relative viability (Apatinib; 0.08 µM) | relative viability (Apatinib; 0.253 µM) | relative viability (Apatinib; 0.8 µM) | relative viability (Apatinib; 2.53 µM) | relative viability (Apatinib; 8 µM) | relative viability (Metformin + Alpelisib; first compound 31.62 µM) | relative viability (Metformin + Alpelisib; first compound 100 µM) | relative viability (Metformin + Alpelisib; first compound 316.23 µM) | relative viability (Metformin + Alpelisib; first compound 1000 µM) | relative viability (Apatinib + Pemetrexed; first compound 0.08 µM) | relative viability (Apatinib + Pemetrexed; first compound 0.253 µM) | relative viability (Apatinib + Pemetrexed; first compound 0.8 µM) | relative viability (Apatinib + Pemetrexed; first compound 2.53 µM) | relative viability (Apatinib + Pemetrexed; first compound 8 µM) | relative viability (Metformin; 10 µM) | relative viability (Metformin + Alpelisib; first compound 10 µM)
1 | 201T | 1.08 | 1.06 | 0.934 | 1.01 | 0.983 | 0.961 | 0.982 | 0.871 | 0.894 | 0.987 | 0.989 | 0.955 | 0.985 | 0.325 | 0.37 | 0.297 | 0.334 | 0.316 |  | 
2 | A549 | 0.976 | 0.923 | 0.849 | 0.996 | 1.02 | 1.04 | 1.02 | 0.903 | 0.909 | 0.879 | 0.739 | 0.672 | 0.611 |  |  |  |  |  | 0.896 | 0.766
3 | A-427 | 1.02 | 0.985 | 1.01 | 1.05 | 1.09 | 0.967 | 0.965 | 0.926 | 0.906 | 1.14 | 1.02 | 1.05 | 1.03 | 0.993 | 0.903 | 0.974 | 0.896 | 0.932 | 1.05 | 1.07
4 | ABC-1 | 1.2 | 0.965 | 0.948 | 0.448 |  | 1.06 | 0.86 | 0.911 | 0.703 | 1.08 | 0.999 | 0.745 | 0.349 |  |  |  |  |  | 0.847 | 
5 | BEN | 1.4 | 1.29 | 1.17 | 1.47 | 1 | 0.92 | 1.02 | 0.821 | 0.807 | 1.47 | 1.43 | 1.03 | 1.24 | 0.64 | 0.563 | 0.71 | 0.696 | 0.534 | 1.26 | 1.16
6 | CAL-12T | 1.19 | 0.938 | 1.02 | 0.968 | 1.08 | 0.99 | 1 | 0.91 | 0.828 | 1.21 | 1.08 | 0.812 | 0.907 | 1.38 | 1.25 | 1.1 | 0.897 | 0.917 | 1.02 | 
7 | Calu-6 | 0.961 | 0.953 | 0.931 | 0.964 | 1.01 | 1.01 | 0.908 | 0.868 | 0.799 | 0.84 | 0.836 | 0.73 | 0.879 |  |  |  |  |  | 0.899 | 0.889
8 | ChaGo-K-1 | 1.11 | 1.05 | 0.896 | 0.987 | 1.01 | 1.09 | 0.932 | 0.938 | 0.989 |  |  |  |  | 0.27 | 0.249 | 0.263 | 0.24 | 0.245 | 0.951 | 
9 | EBC-1 | 1.19 | 1.07 | 0.918 | 1.04 | 1 | 1.06 | 0.914 | 0.858 | 0.738 | 0.989 | 0.925 | 0.941 | 0.947 |  |  |  |  |  | 1.18 | 0.866
10 | IA-LM | 1.16 | 1.15 | 1.07 | 1.15 | 0.955 | 0.9 | 0.994 | 0.694 | 0.535 | 1.11 | 0.906 | 0.882 | 0.88 |  |  |  |  |  | 0.982 | 
11 | NCI-H522 | 1.09 | 1.05 | 0.942 | 1.11 | 1 | 1.04 | 1.1 | 0.916 | 0.928 |  |  |  |  | 0.986 | 0.975 | 0.993 | 0.66 | 0.748 | 1.24 | 
12 | NCI-H727 | 1.06 | 1.13 | 0.688 | 1.16 | 1.08 | 0.879 | 0.937 | 0.77 | 0.843 | 0.749 | 0.469 | 0.647 | 0.533 |  |  |  |  |  | 1.04 | 0.657
13 | NCI-H1299 | 1.04 | 1.07 | 1.01 | 1.03 | 1.04 | 1 | 1 | 0.931 | 0.917 | 0.998 | 1.05 | 0.994 | 0.933 |  |  |  |  |  | 1.07 | 0.991
14 | NCI-H1648 | 1.11 | 1.28 | 1.08 | 1.16 | 1.18 | 0.735 | 0.722 | 0.591 | 0.498 |  |  |  |  | 0.681 | 0.613 | 0.706 | 0.548 | 0.691 | 0.937 | 
15 | NCI-H1650 | 0.865 | 1.17 | 1.03 | 0.931 | 0.904 | 1.01 | 0.86 | 0.832 | 0.824 |  |  |  |  | 0.386 | 0.347 | 0.325 | 0.37 | 0.378 | 1.09 | 
16 | NCI-H1703 | 1.42 | 0.998 | 1.06 | 1.19 | 0.784 | 0.769 | 0.355 | 0.199 | 0.19 | 0.728 | 0.474 | 0.512 | 0.368 |  |  |  |  |  | 1.3 | 0.491
17 | NCI-H2342 | 1.03 | 1.04 | 0.935 | 1.07 | 0.899 | 0.909 | 0.998 | 0.929 | 0.941 |  |  |  |  | 0.731 | 0.73 | 0.744 | 0.733 | 0.737 | 0.665 | 
18 | SW 900 | 1.15 | 0.779 | 0.933 | 1.07 | 1 | 0.87 | 0.858 | 0.615 | 0.825 |  |  |  |  | 0.486 | 0.467 | 0.427 | 0.379 | 0.321 | 1.08 | 
